The text below walks through data of patent US20250108142A1, “METHODS FOR TREATING LEAKAGE FROM A GASTROINTESTINAL SITE” (Ethicon, Inc., priority 2023, published 2025).

A short description of the data set: Release of ibuprofen from fibrin clot in an in vitro setting. The format is physicochemical. The procedure: Release of ibuprofen from fibrin clot in an in vitro setting: A similar procedure was applied for ibuprofen embedded in fibrin sealant and for PLGA-ibuprofen embedded in fibrin sealant. […] This step was repeated 15 times (days). The ibuprofen concentration was measured by its UV signature, that is, UV absorption at 221 nm.

Regarding `CC(C)Cc1ccc(C(C)C(=O)O)cc1` (stereo not shown) [Ibuprofen, ibuprofen], the release profile result is given as “less than controlled manner”.
